The values that follow are results of earlier work, collected in patent publication US5308833A, “Method for treating hepatitis B carriers with minimal disease” (SciClone Pharmaceuticals, priority 1992, dated 1994).

For one series, the system named is lymphocyte. The note with it: individuals suffering from chronic active hepatitis B.

Where no end group is shown, it is not given here.

On to “thymosin α-1 (SDAAVDTSSEITTKDLKEKKEVVEEAEN; ends and bridges not checked; UniProt P06454 2-29, looked up) [28 amino acid peptide originally isolated from calf thymus thymosin fraction 5]”, for which, in the series with lymphocyte, the lymphocyte counts result was “increases in lymphocyte counts” and the “production of γ-interferon” value is “enhance production of γ-interferon”. Moreover, in the series on hepatitis B virus (patients with chronic active hepatitis B administered the peptide), the “hepatitis B virus DNA in serum” value was “cleared hepatitis B virus DNA from serum”. For the same substance, the “serum HBV DNA after treatment was terminated” value in the series on hepatitis B virus (patients with chronic active hepatitis B, after treatment was terminated) is reported as “tested persistently negative for serum HBV DNA”.
